According to US8492582B2, “N-acyl anthranilic acid derivative or salt thereof” (Toyama Chemical Co., Ltd., priority 2009, dated 2013):
Counter-ions that a name gives are not always drawn.

system: type I collagen α1 chain mRNA in WI-38 cells; assay: Type I collagen α1 chain mRNA expression inhibition test; type: cell-based; settings: Homo sapiens, WI-38, 24 h, read-out: Inhibition rate (%) at 10 μmol/L
Method: Human embryonic lung fibroblast cell line WI-38 cells were suspended in a Dulbecco's modified Eagle's medium containing 10% fetal calf serum, and 7.5×10^4 cells were inoculated on a 12-well plate and cultured for 3 days, or 1.5×10^5 cells were inoculated and cultured for 2 days. After the growth of the cells to a subconfluent state, the culture medium was changed to a Dulbecco's modified Eagle's medium containing 0.4% fetal calf serum and 50 μg/mL ascorbic acid, and the cells were further cultured for 24 hours. Then, a test compound was added thereto, and, one hour later, TGF-β1 was added at a final concentration of 1 ng/mL. Twenty-four hours after the addition, the total RNA was extracted from the cells using an RNA extraction kit (SV Total RNA Isolation System, Promega), and cDNA was synthesized using a reverse transcriptase (ReverTra Ace, TOYOBO). The expression level of the type I collagen al chain mRNA was analyzed with a real-time PCR instrument (ABI PRISM 7700 Sequence Detection System, Applied Biosystems) by a real-time PCR method using a premix reagent of real-time PCR (SYBR Premix Ex Taq or SYBR Premix Ex Taq II (Perfect Real Time), TaKaRa). A PCR reaction was conducted with diluted cDNA as a template, using primers specific for a type I collagen α1 chain gene or a GAPDH gene as an internal standard, and the reaction product was measured. The PCR reaction was conducted by incubation at 95° C. for 10 seconds and 45 cycles of denaturation at 95° C. for 5 seconds and annealing/extension at 60° C. for 30 seconds. The expression level of the type I collagen α1 chain mRNA was corrected with GAPDH and was expressed as a relative value when the expression level obtained in the absence of the test compound was defined as 100%.

SMILES | inhibition at 10 µM
O=C(Nc1cc(-c2ccccc2)ccc1C(=O)O)c1ccc(-c2cccnc2)cc1O [Example 13a, sodium 2-(2-hydroxy-4-(pyridin-3-yl)benzamido)-4-phenylbenzoate] | 93%
O=C(Nc1cc(-c2ccco2)ccc1C(=O)O)c1cc(-c2cccnc2)ccc1O [Example 44a, sodium 4-(furan-2-yl)-2-(2-hydroxy-5-(pyridin-3-yl)benzamido)benzoate] | 89%
O=C(Nc1cc(-c2ccsc2)ccc1C(=O)O)c1cncc(-c2ccccc2)c1 [46b, sodium 2-(5-phenylpyridine-3-carboxamido)-4-(thiophen-3-yl)benzoate] | 69%

same assay, conditions: Homo sapiens; 10 μmol/L test compound; WI-38 cells, TGF-β1 1 ng/mL, 24 hours; Table 4a; read-out: Inhibition rate (%) at 10 μmol/L

SMILES | inhibition at 10 µM
CCN(CCO)CCOc1ccc(O)c(C(=O)Nc2cc(-c3ccccc3)ccc2C(=O)O)c1 [182a, 2-(5-(2-(Ethyl(2-hydroxyethyl)amino)ethoxy)-2-hydroxybenzamido)-4-phenylbenzoic acid hydrochloride] | 82%
CNC1CCN(Cc2ccc(O)c(C(=O)Nc3cc(-c4ccccc4)ccc3C(=O)O)c2)CC1 [Example 126a, 2-(2-Hydroxy-5-((4-(methylamino)piperidin-1-yl)methyl)benzamido)-4-phenylbenzoic acid dimethanesulfonate] | 79%
O=C(Nc1cc(-c2ccccc2)ccc1C(=O)O)c1cc(-c2ncccn2)ccc1O [Example 29a, 2-(2-hydroxy-5-(pyrimidin-2-yl)benzamido)-4-phenylbenzoic acid] | 90%
CN1CCC(CCOc2ccc(O)c(C(=O)Nc3cc(-c4ccccc4)ccc3C(=O)O)c2)CC1 [190a, 2-(2-Hydroxy-5-(2-(1-methylpiperidin-4-yl)ethoxy)benzamido)-4-phenylbenzoic acid hydrochloride] | 86%
CN1CCN(c2ccc(O)c(C(=O)Nc3cc(-c4ccccc4)ccc3C(=O)O)c2)CC1=O [193a, 2-(2-Hydroxy-5-(4-methyl-3-oxopiperazin-1-yl)benzamido)-4-phenylbenzoic acid] | 85%
O=C(Nc1cc(-c2ccccc2)ccc1C(=O)O)c1cc(Cl)ccc1O [Example 2a, 2-(5-Chloro-2-hydroxybenzamido)-4-phenylbenzoic acid] | 99%
O=C(Nc1cc(-c2ccccc2)ccc1C(=O)O)c1cc(OCCN2CCC2)ccc1O [177a, 2-(5-(2-(azetidin-1-yl)ethoxy)-2-hydroxybenzamido)-4-phenylbenzoic acid hydrochloride] | 82%
CCN(CCN(C)C)c1ccc(O)c(C(=O)Nc2cc(-c3ccccc3)ccc2C(=O)O)c1 [Example 104a, 2-(5-((2-(Dimethylamino)ethyl)(ethyl)amino)-2-hydroxybenzamido)-4-phenylbenzoic acid] | 92%
CN1CCN(CCCOc2ccc(O)c(C(=O)Nc3cc(-c4ccccc4)ccc3C(=O)O)c2)CC1 [Example 141a, 2-(2-hydroxy-5-(3-(4-methylpiperazin-1-yl)propoxy)benzamido)-4-phenylbenzoic acid dimethanesulfonate] | 92%
Cc1cccc(C(=O)Nc2cc(-c3ccccc3)ccc2C(=O)O)c1O [Example 41a, 2-(2-hydroxy-3-methylbenzamido)-4-phenylbenzoic acid] | 99%
O=C(Nc1cc(-c2ccccc2)ccc1C(=O)O)c1cc(-n2cccn2)ccc1O [Example 22a, 2-(2-hydroxy-5-(1H-pyrazol-1-yl)benzamido)-4-phenylbenzoic acid] | 97%
CCN1CCC(c2ccc(O)c(C(=O)Nc3cc(-c4ccccc4)ccc3C(=O)O)c2)CC1 [222a, 2-(5-(1-ethylpiperidin-4-yl)-2-hydroxybenzamido)-4-phenylbenzoic acid] | 85%
CN(C)c1ccc(O)c(C(=O)Nc2cc(-c3ccccc3)ccc2C(=O)O)c1 [Example 76a, 2-(5-(dimethylamino)-2-hydroxybenzamido)-4-phenylbenzoic acid hydrochloride] | 72%
CN1CCN(c2ccc(O)c(C(=O)Nc3cc(-c4ccccc4)ccc3C(=O)O)c2)CC1 [Example 92a, 2-(2-hydroxy-5-(4-methylpiperazin-1-yl)benzamido)-4-phenylbenzoic acid dimethanesulfonate] | 84%
CCCN1CCN(CCOc2ccc(O)c(C(=O)Nc3cc(-c4ccccc4)ccc3C(=O)O)c2)CC1 [183a, 2-(2-hydroxy-5-(2-(4-propylpiperazin-1-yl)ethoxy)benzamido)-4-phenylbenzoic acid dimethanesulfonate] | 81%
COc1ccc(C(=O)Nc2cc(-c3ccccc3)ccc2C(=O)O)c(O)c1 [Example 6a, 2-(2-Hydroxy-4-methoxybenzamido)-4-phenylbenzoic acid] | 95%
Cc1ccccc1-c1ccc(C(=O)O)c(NC(=O)c2cc(N3CCCCC3)ccc2O)c1 [Example 148a, 2-(2-hydroxy-5-(piperidin-1-yl)benzamido)-4-(2-methylphenyl)benzoic acid] | 93%
CN1CCCCC1c1ccc(O)c(C(=O)Nc2cc(-c3ccccc3)ccc2C(=O)O)c1 (stereo not shown) [217a, 2-(2-hydroxy-5-(1-methylpiperidin-2-yl)benzamido)-4-phenylbenzoic acid] | 91%
CC1CCCN(c2ccc(O)c(C(=O)Nc3cc(-c4ccccc4)ccc3C(=O)O)c2)C1 (stereo not shown) [166a, 2-(2-Hydroxy-5-(3-methylpiperidin-1-yl)benzamido)-4-phenylbenzoic acid hydrochloride] | 95%
CN1CCC(c2ccc(O)c(C(=O)Nc3cc(-c4ccccc4)ccc3C(=O)O)c2)CC1 [Example 50a, 2-(2-hydroxy-5-(1-methylpiperidin-4-yl)benzamido)-4-phenylbenzoic acid] | 75%
O=C(Nc1cc(-c2ccco2)ccc1C(=O)O)c1cc(N2CCCCC2)ccc1O [Example 65a, 4-(furan-2-yl)-2-(2-hydroxy-5-(piperidin-1-yl)benzamido)benzoic acid methanesulfonate] | 71%

same assay, conditions: Homo sapiens; 10 μmol/L test compound; WI-38 cells, TGF-β1 1 ng/mL, 24 hours; Table 4b; read-out: Inhibition rate (%) at 10 μmol/L

SMILES | inhibition at 10 µM
O=C(Nc1cc(-c2ccc[nH]2)ccc1C(=O)O)c1cncc(-c2ccccc2)c1 [58b, 2-(5-phenylpyridine-3-carboxamido)-4-(1H-pyrrol-2-yl)benzoic acid] | 78%
Cc1ccccc1-c1ccc(C(=O)O)c(NC(=O)c2cncc(-c3ccccc3)c2)c1 [32b, Sodium 4-(2-methylphenyl)-2-(5-phenylpyridine-3-carboxamido)benzoate] | 81%
Nc1ccccc1-c1ccc(C(=O)O)c(NC(=O)c2cncc(-c3ccccc3)c2)c1 [27b, 4-(2-Aminophenyl)-2-(5-phenylpyridine-3-carboxamido)benzoic acid] | 72%
CCOc1ccccc1-c1ccc(C(=O)O)c(NC(=O)c2cncc(-c3ccccc3)c2)c1 [38b, Sodium 4-(2-ethoxyphenyl)-2-(5-phenylpyridine-3-carboxamido)benzoate] | 94%
O=C(Nc1cc(Nc2ccccc2)ccc1C(=O)O)c1cncc(-c2ccccc2)c1 [61b, 4-anilino-2-(5-phenylpyridine-3-carboxamido)benzoic acid] | 86%
CNc1cccc(-c2ccc(C(=O)O)c(NC(=O)c3cncc(-c4ccccc4)c3)c2)c1 [13b, 4-(3-(Methylamino)phenyl)-2-(5-phenylpyridine-3-carboxamido)benzoic acid] | 92%
O=C(Nc1cc(-c2ccccc2OC(F)(F)F)ccc1C(=O)O)c1cncc(-c2ccccc2)c1 [40b, Sodium 2-(5-phenylpyridine-3-carboxamido)-4-(2-(trifluoromethoxy)phenyl)benzoate] | 96%
COc1cccc(-c2ccc(C(=O)O)c(NC(=O)c3cncc(-c4ccccc4)c3)c2)c1 [35b, Sodium 4-(3-methoxyphenyl)-2-(5-phenylpyridine-3-carboxamido)benzoate] | 96%
O=C(Nc1cc(-c2ccccc2)ccc1-c1nnn[nH]1)c1cncc(-c2ccccc2)c1 [29b, 5-phenyl-N-(5-phenyl-2-(1H-tetrazol-5-yl)phenyl)pyridine-3-carboxamide] | 86%
CNc1ccccc1-c1ccc(C(=O)O)c(NC(=O)c2cncc(-c3ccccc3)c2)c1 [12b, 4-(2-(Methylamino)phenyl)-2-(5-phenylpyridine-3-carboxamido)benzoic acid] | 87%
CN(C)c1cccc(-c2ccc(C(=O)O)c(NC(=O)c3cncc(-c4ccccc4)c3)c2)c1 [51b, 4-(3-(Dimethylamino)phenyl)-2-(5-phenylpyridine-3-carboxamido)benzoic acid] | 92%
O=C(Nc1cc(-c2ccccc2)ccc1C(=O)O)c1ccnc(-c2ccccc2)c1 [4b, 4-Phenyl-2-(2-phenylpyridine-4-carboxamido)benzoic acid] | 93%
CCNc1cccc(-c2ccc(C(=O)O)c(NC(=O)c3cncc(-c4ccccc4)c3)c2)c1 [11b, 4-(3-(ethylamino)phenyl)-2-(5-phenylpyridine-3-carboxamido)benzoic acid] | 80%
